For the experiment, the system named is extracellular dopamine (DA) in the rat nucleus accumbens. Description: Ethanol-stimulated increases in extracellular dopamine levels in the nucleus accumbens (microdialysis). The experiment is classed as in vivo, Sprague-Dawley rats. The text has this: Ethanol-Stimulated Increases in Extracellular Dopamine Levels in the Nucleus Accumbens:
Male Sprague-Dawley rats with a body weight of 260-300 g from Taconic Farms (Germantown, N.Y.) are implanted with a guide cannula (Bioanalytical Systems Inc, West Lafayette, Ind.) in the nucleus accumbens by the vendor 5-7 days before the experiment. Stereotaxic coordinates for the nucleus accumbens cannula are: A (anterior to bregma), 1.7 mm; L (lateral from the midsagittal suture, right side), 1.0 mm; and V (ventral from the dura surface), −6.0 mm (Paxinos and Watson, 1986). A concentric type probe (BR-2) from Bioanalytical Systems Inc. (West Lafayette, Ind.) is flushed with water and carefully inserted through the cannula about 16 hours before the experiment so that 2 mm of the membrane tip extends below the end of the guide cannula. The rat is then placed in a plastic test bowl to acclimate overnight. Based on methods modified from Melendez et al. (Melendez R I, Rodd-Henricks Z A, McBride W J and Murphy J M (2003), Alcohol stimulates the release of dopamine in the ventral pallidum but not in the globus pallidus: a dual-probe microdialysis study. Neuropsychopharmacology 28:939-946), the rat is connected to a fraction collection system for freely moving animals on the morning of the experiment (Raturn, BioAnalytical Systems Inc, West Lafayette, Ind.). The input tube of the dialysis probe is connected to a syringe pump (BeeHive and BabyBee, Bioanalytical Systems Inc, West Lafayette, Ind.) which delivers an artificial cerebrospinal fluid (150 mM NaCl, 3 mM KCl, 1.7 mM CaCl2 and 0.9 mM MgCl2 ([…])) to the probe at a final collection rate of 1.5 μL/min. The output tubes from the rats are attached to a refrigerated fraction collector (Bioanalytical Systems Inc, West Lafayette, Ind.). After a period of about an hour at an initial perfusion rate of 5.0 μL/min, the flow rate is decreased to 2.0 μL/min for equilibration of the probe and establishment of stable baseline levels for 1 hour, then collection of 20 minute fractions is started. Four baseline samples are collected before injection of any drugs.
Test compound is administered orally at 30 mg/kg (2 ml/kg dose volume, dissolved in a vehicle consisting of 20% Captisol® in 25 mM phosphate buffer at pH=3). The compound is administered either alone (10 min into the 4th sample; 0 min time point) or in combination with ethanol (10 min into the 1st sample; −60 min time point). Ethanol is administered intraperitoneally (ip) at a dose of 1.1 g/kg in a 15% (v/v) solution in 0.9% saline in a volume of 2.9 ml per rat. Ethanol is administered 10 min into the 4th sample (0 min time point). Dialysate samples are transferred to an Alcott 718 Autosampler/Injector with the sample cooling tray set to 5° C. (Alcott Inc., Norcross, Ga.). […]

[1] abbreviates: compound 30 mg/kg oral + EtOH 1.1 g/kg ip.

Regarding `Cc1nn(-c2ncccc2CO)cc1CN1CCC2(CC1)OCC(F)(F)c1cc(Cl)sc12` [Compound 1, [2-[4-[(2-chloro-4,4-difluoro-spiro[5H-thieno[2,3-c]pyran-7,4′-piperidine]-1′-yl)methyl]-3-methyl-pyrazol-1-yl]-3-pyridyl]methanol], the “Mean DA level (% of baseline) during 120 min period post-EtOH injection” value by setting is: under setting [1], 102.78 % of baseline; (compound 30 mg/kg oral + Vehicle (no ethanol)) 98.53 % of baseline. In addition, the “Reduction of DA response relative to Vehicle” value under setting [1] stood at 88.16%. Also, where the note is “result in words”, the “ethanol-stimulated increase in extracellular DA concentration in the nucleus accumbens” value is recorded as “prevent the increase in extracellular DA concentrations in the nucleus accumbens”.

Source of the values: patent US9371335B2, “Spirothienopyran-piperidine derivatives as ORL-1 receptor antagonists for their use in the treatment of alcohol dependence and abuse” (Eli Lilly and Company, priority 2011, dated 2016).
